Reference: patent publication US20090143423A1, “SOLID DISPERSION PRODUCT CONTAINING N-ARYL UREA-BASED COMPOUND” (ABBOTT GMBH & CO. KG, priority 2007, published 2009)

Columns and labels:
in vivo = conditions: rat, po, 100 mg/kg
Protocol: A study was conducted to evaluate effect of aging on the ABT-102 bioavailability obtained from suspensions of the spray dried material. Suspensions were prepared by stirring in water for 15 minutes at room temperature (5 mg/ml concentration). The suspensions were then stored refrigerated until dosing. Suspensions aged for 1, 4 and 7 days were compared to a suspension freshly prepared on the morning of dosing. Each of the aged suspension was evaluated in a group of three rats at a dose of 100 mg/kg (20 ml/kg). All four test formulations were evaluated in the same study. Plasma concentrations of parent drug were determined by HPLC-MS/MS.

[1] = Previously conducted human pharmacokinetics of ABT-102; type: in vivo; conditions: lipid-liquid formulation
From the text: However, it is anticipated that the current spray dried formulation of the invention also achieves similar pharmacokinetic profile in humans.

[2] = Plasma concentration following multiple oral dosing in rat; type: in vivo, Sprague-Dawley rats; conditions: for AUC / Cmax / Tmax: mean; for half-life: harmonic mean
Protocol: A study was conducted to explore the ABT-102 plasma concentrations following multiple oral dosing in rat. In this study, a 10, 30 or 100 mg/kg/day oral dose was administered once daily for eight consecutive days. The compound was prepared as a suspension of the spray dried material in water at concentrations appropriate for a 20 ml/kg/day dose volume in each treatment group. The study was conducted in Sprague-Dawley rats (3 male, 3 female per dose group). Animals were permitted free access to food and water throughout the study. Plasma concentrations of parent drug were determined on the first (Day 1) and last (Day 8) of dosing.

[3] = 10 mg/kg/day oral, Day 1, aqueous suspension of spray-dried dispersion of Example 4 (part B)
[4] = 10 mg/kg/day oral, Day 8, aqueous suspension of spray-dried dispersion of Example 4 (part B)
[5] = 30 mg/kg/day oral, Day 1, aqueous suspension of spray-dried dispersion of Example 4 (part B)
[6] = 30 mg/kg/day oral, Day 8, aqueous suspension of spray-dried dispersion of Example 4 (part B)
[7] = 100 mg/kg/day oral, Day 1, aqueous suspension of spray-dried dispersion of Example 4 (part B)
[8] = 100 mg/kg/day oral, Day 8, aqueous suspension of spray-dried dispersion of Example 4 (part B)
[9] = both sexes, Sprague-Dawley, plasma, po, 10 mg/kg/day, 10 mg/kg/day oral, Day 1, aqueous suspension of spray-dried dispersion of Example 4 (part B)
[10] = both sexes, Sprague-Dawley, plasma, po, 10 mg/kg/day, 10 mg/kg/day oral, Day 8, aqueous suspension of spray-dried dispersion of Example 4 (part B)
[11] = both sexes, Sprague-Dawley, plasma, po, 30 mg/kg/day, 30 mg/kg/day oral, Day 1, aqueous suspension of spray-dried dispersion of Example 4 (part B)
[12] = both sexes, Sprague-Dawley, plasma, po, 30 mg/kg/day, 30 mg/kg/day oral, Day 8, aqueous suspension of spray-dried dispersion of Example 4 (part B)
[13] = both sexes, Sprague-Dawley, plasma, po, 100 mg/kg/day, 100 mg/kg/day oral, Day 1, aqueous suspension of spray-dried dispersion of Example 4 (part B)
[14] = both sexes, Sprague-Dawley, plasma, po, 100 mg/kg/day, 100 mg/kg/day oral, Day 8, aqueous suspension of spray-dried dispersion of Example 4 (part B)

For `CC(C)(C)c1ccc2c(c1)CCC2NC(=O)Nc1cccc2[nH]ncc12` (stereo in doubt) [ABT-102, 1-((R)-5-tert-butyl-indan-1-yl)-3-(1H-indazol-4-yl)-urea], which AUC (in vivo; AUC) is on record?
The AUC was 12400 ng·h/mL.

And the Cmax (in vivo; Cmax)?
Its Cmax is 1160 ng/mL.

And the Tmax (in vivo; Tmax)?
Its Tmax is 4.3 h.

And the half-life (in vivo; t1/2)?
The half-life was 4.4 h.

What about the “pharmacokinetics (Cmax and AUC) versus dose” value [1] of the same molecule?
The value was “dose proportional exposures”.

And the AUC/D [2, 3]?
Its AUC/D is 0.918 μg · hr/mL per mg/kg.

What about the Cmax/D [2, 3] of the same molecule?
The Cmax/D was 0.073 μg/mL per mg/kg.

What about the AUC ([2]; 10 mg/kg/day oral, Day 1, aqueous suspension of spray-dried dispersion of Example 4 (part B), 10 mg/kg/day) of the same molecule?
Its AUC is 9180 ng·h/mL.

And the AUC/D [2, 4]?
The AUC/D was 0.725 μg · hr/mL per mg/kg.

And the Cmax/D [2, 4]?
The Cmax/D was 0.060 μg/mL per mg/kg.

And the AUC ([2]; 10 mg/kg/day oral, Day 8, aqueous suspension of spray-dried dispersion of Example 4 (part B), 10 mg/kg/day)?
The AUC was 7250 ng·h/mL.

And the AUC/D [2, 5]?
Its AUC/D is 0.741 μg · hr/mL per mg/kg.

What about the Cmax/D [2, 5] of the same molecule?
The Cmax/D was 0.046 μg/mL per mg/kg.

What about the AUC ([2]; 30 mg/kg/day oral, Day 1, aqueous suspension of spray-dried dispersion of Example 4 (part B), 30 mg/kg/day) of the same molecule?
Its AUC is 22220 ng·h/mL.

And the AUC/D [2, 6]?
The AUC/D was 0.498 μg · hr/mL per mg/kg.

What about the Cmax/D [2, 6] of the same molecule?
Its Cmax/D is 0.044 μg/mL per mg/kg.

What about the AUC ([2]; 30 mg/kg/day oral, Day 8, aqueous suspension of spray-dried dispersion of Example 4 (part B), 30 mg/kg/day) of the same molecule?
Its AUC is 14950 ng·h/mL.

What about the AUC/D [2, 7] of the same molecule?
Its AUC/D is 0.326 μg · hr/mL per mg/kg.

What about the Cmax/D [2, 7] of the same molecule?
Its Cmax/D is 0.021 μg/mL per mg/kg.

What about the AUC ([2]; 100 mg/kg/day oral, Day 1, aqueous suspension of spray-dried dispersion of Example 4 (part B), 100 mg/kg/day) of the same molecule?
The AUC was 32610 ng·h/mL.

And the AUC/D [2, 8]?
The AUC/D was 0.362 μg · hr/mL per mg/kg.

What about the Cmax/D [2, 8] of the same molecule?
Its Cmax/D is 0.026 μg/mL per mg/kg.

And the AUC ([2]; 100 mg/kg/day oral, Day 8, aqueous suspension of spray-dried dispersion of Example 4 (part B), 100 mg/kg/day)?
Its AUC is 36180 ng·h/mL.

And the half-life [2, 9]?
Its half-life is 5.9 h.

What about the Cmax [2, 9] of the same molecule?
Its Cmax is 730 ng/mL.

And the Tmax [2, 9]?
Its Tmax is 2.3 h.

What about the AUC ([2]; both sexes, Sprague-Dawley, plasma, po, 10 mg/kg/day, 10 mg/kg/day oral, Day 1, aqueous suspension of spray-dried dispersion of Example 4 (part B), read-out: AUC) of the same molecule?
Its AUC is 9200 ng·h/mL.

What about the half-life [2, 10] of the same molecule?
The half-life was 5.4 h.

What about the Cmax [2, 10] of the same molecule?
Its Cmax is 600 ng/mL.

What about the Tmax [2, 10] of the same molecule?
The Tmax was 3.3 h.

And the AUC ([2]; both sexes, Sprague-Dawley, plasma, po, 10 mg/kg/day, 10 mg/kg/day oral, Day 8, aqueous suspension of spray-dried dispersion of Example 4 (part B), read-out: AUC)?
Its AUC is 7300 ng·h/mL.

What about the half-life [2, 11] of the same molecule?
The half-life was 7.8 h.

What about the Cmax [2, 11] of the same molecule?
The Cmax was 1390 ng/mL.

And the Tmax [2, 11]?
The Tmax was 3 h.

And the AUC ([2]; both sexes, Sprague-Dawley, plasma, po, 30 mg/kg/day, 30 mg/kg/day oral, Day 1, aqueous suspension of spray-dried dispersion of Example 4 (part B), read-out: AUC)?
Its AUC is 22200 ng·h/mL.

And the half-life [2, 12]?
Its half-life is 5.3 h.

What about the Cmax [2, 12] of the same molecule?
Its Cmax is 1320 ng/mL.

And the Tmax [2, 12]?
Its Tmax is 3.3 h.

And the AUC ([2]; both sexes, Sprague-Dawley, plasma, po, 30 mg/kg/day, 30 mg/kg/day oral, Day 8, aqueous suspension of spray-dried dispersion of Example 4 (part B), read-out: AUC)?
The AUC was 15000 ng·h/mL.

What about the half-life [2, 13] of the same molecule?
The half-life was 6.3 h.

And the Cmax [2, 13]?
Its Cmax is 2130 ng/mL.

What about the Tmax [2, 13] of the same molecule?
Its Tmax is 5 h.

And the AUC ([2]; both sexes, Sprague-Dawley, plasma, po, 100 mg/kg/day, 100 mg/kg/day oral, Day 1, aqueous suspension of spray-dried dispersion of Example 4 (part B), read-out: AUC)?
The AUC was 32600 ng·h/mL.

What about the half-life [2, 14] of the same molecule?
The half-life was 5.6 h.

And the Cmax [2, 14]?
Its Cmax is 2610 ng/mL.

What about the Tmax [2, 14] of the same molecule?
Its Tmax is 4.5 h.

And the AUC ([2]; both sexes, Sprague-Dawley, plasma, po, 100 mg/kg/day, 100 mg/kg/day oral, Day 8, aqueous suspension of spray-dried dispersion of Example 4 (part B), read-out: AUC)?
The AUC was 36200 ng·h/mL.
